In EPA's ToxValDB 9.5 (doi:10.2903/j.efsa.2014.3524):

Tests used:
Rattus norvegicus = details: acute; oral; mortality
Bird = details: oral, mortality; for LD50: acute, unspecified; for LC50: short-term, feed

| Structure (SMILES) | LD50 (Rattus norvegicus) [mg/kg] | LD50 (Bird) [mg/kg] | LC50 (Bird) [mg/kg] |
| --- | --- | --- | --- |
| CCC=CC=CCCCCCCOC(C)=O (stereo in doubt) [(7Z,9E)-Dodeca-7,9-dienyl acetate] | > 5000 |  |  |
| C/C=C/C=C/CCCCCCCO [(8E,10E)-8,10-Dodecadien-1-ol] | > 5000 | > 2050 |  |
| CCC/C=C/CCCCCCCOC(C)=O [(E)-Dodec-8-enyl acetate] | > 5000 |  |  |
| CCCC/C=C\CCCCCCCCOC(C)=O [(Z)-9-Tetradecenyl acetate] | > 5000 |  |  |
| CCCC/C=C\CCCCCCCCCC=O [(Z)-11-Hexadecenal] | > 5000 | > 2250 | > 5620 |
| CC/C=C\CCCCCCCCOC(C)=O [(Z)-Dodec-9-enyl acetate] | > 5000 |  |  |
| CC/C=C\CCCCCCCCCCOC(C)=O [(Z)-Tetradec-11-enyl acetate] | > 5000 |  |  |
| CCCC/C=C/CC/C=C\CCCCCCOC(C)=O [Hexadeca-7,11-dien-1-yl acetate (Z,E)-] | > 5000 | > 2250 | > 5620 |
